Assay results published in ChEMBL document CHEMBL5465560, “Selectivity Literature for EUbOPEN Chemogenomic Library” (2024).
Each block holds one compound with its values, some of them ahead of it.

Key:
[1] = tested on: Mast/stem cell growth factor receptor Kit (Homo sapiens), P10721 [V559D,V654A]; conditions: at 10 µM
[2] = biological target: Phosphorylase b kinase gamma catalytic chain, skeletal muscle/heart isoform (Homo sapiens) (UniProt Q16816); assay: Selectivity interaction (KinomeScan (DiscoverX)) EUB0000655a PHKG1; conditions: at 10 µM
Sequence of Phosphorylase b kinase gamma catalytic chain, skeletal muscle/heart isoform (Homo sapiens) (Q16816 whole entry, looked up, canonical isoform): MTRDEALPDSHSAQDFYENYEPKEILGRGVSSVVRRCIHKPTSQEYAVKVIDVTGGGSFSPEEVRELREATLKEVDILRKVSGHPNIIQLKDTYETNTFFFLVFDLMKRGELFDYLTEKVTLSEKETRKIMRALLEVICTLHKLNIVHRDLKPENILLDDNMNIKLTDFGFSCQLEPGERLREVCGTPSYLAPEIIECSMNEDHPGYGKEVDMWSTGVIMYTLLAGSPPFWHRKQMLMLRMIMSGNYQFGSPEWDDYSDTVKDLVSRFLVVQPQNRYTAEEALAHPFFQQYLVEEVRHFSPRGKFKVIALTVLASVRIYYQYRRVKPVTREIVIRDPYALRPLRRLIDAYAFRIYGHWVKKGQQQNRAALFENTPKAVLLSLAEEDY

[3] = biological target: T1, Serine/threonine-protein kinase STK11 (Homo sapiens) (UniProt Q15831); assay: Selectivity interaction (KinomeScan (DiscoverX)) EUB0001079a STK11; conditions: at 1 µM
T1 sequence (whole entry): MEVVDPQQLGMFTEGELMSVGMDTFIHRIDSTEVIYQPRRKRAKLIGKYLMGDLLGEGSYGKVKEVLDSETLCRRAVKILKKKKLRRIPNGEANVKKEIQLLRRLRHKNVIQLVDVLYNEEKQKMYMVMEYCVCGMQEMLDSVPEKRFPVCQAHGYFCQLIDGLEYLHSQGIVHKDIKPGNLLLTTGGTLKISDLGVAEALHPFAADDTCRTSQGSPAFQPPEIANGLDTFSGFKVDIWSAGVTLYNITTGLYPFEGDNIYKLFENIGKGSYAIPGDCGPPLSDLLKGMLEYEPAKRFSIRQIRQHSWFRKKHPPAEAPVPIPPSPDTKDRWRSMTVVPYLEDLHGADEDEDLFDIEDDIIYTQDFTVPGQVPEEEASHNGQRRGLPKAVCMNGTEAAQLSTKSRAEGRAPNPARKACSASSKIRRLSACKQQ

[4] = biological target: Sodium-dependent dopamine transporter (Homo sapiens, UniProt Q01959); assay: Selectivity interaction (GPCR panel (PDSP screen)) EUB0001079a SLC6A3; conditions: at 10 µM
Sequence of Sodium-dependent dopamine transporter (Q01959 whole entry): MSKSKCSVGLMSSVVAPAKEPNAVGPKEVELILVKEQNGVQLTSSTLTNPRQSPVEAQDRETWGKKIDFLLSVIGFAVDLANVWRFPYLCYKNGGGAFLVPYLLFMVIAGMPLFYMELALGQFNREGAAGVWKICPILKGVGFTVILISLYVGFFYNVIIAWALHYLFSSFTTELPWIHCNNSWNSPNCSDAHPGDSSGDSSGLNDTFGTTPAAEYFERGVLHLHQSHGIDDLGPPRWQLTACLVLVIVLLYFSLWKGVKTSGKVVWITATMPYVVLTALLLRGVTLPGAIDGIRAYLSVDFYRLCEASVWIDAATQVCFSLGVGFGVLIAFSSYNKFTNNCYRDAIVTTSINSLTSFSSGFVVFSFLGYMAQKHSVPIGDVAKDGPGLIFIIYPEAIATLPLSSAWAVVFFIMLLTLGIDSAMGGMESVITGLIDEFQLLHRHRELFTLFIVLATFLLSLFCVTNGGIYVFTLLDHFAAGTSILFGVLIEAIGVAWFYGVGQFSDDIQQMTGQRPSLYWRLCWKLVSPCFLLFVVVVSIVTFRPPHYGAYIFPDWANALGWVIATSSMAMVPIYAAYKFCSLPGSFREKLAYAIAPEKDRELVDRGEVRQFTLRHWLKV

[5] = biological target: Mitogen-activated protein kinase kinase kinase 11 (Homo sapiens) (UniProt Q16584); assay: Selectivity interaction (ActivX KiNativ screen (ex vivo kinase selectivity in human PBMCs)) EUB0001619a MAP3K11; format: cell-based; conditions: PBMC, at 1 µM
Sequence of Mitogen-activated protein kinase kinase kinase 11 (Homo sapiens) (Q16584 whole entry, looked up): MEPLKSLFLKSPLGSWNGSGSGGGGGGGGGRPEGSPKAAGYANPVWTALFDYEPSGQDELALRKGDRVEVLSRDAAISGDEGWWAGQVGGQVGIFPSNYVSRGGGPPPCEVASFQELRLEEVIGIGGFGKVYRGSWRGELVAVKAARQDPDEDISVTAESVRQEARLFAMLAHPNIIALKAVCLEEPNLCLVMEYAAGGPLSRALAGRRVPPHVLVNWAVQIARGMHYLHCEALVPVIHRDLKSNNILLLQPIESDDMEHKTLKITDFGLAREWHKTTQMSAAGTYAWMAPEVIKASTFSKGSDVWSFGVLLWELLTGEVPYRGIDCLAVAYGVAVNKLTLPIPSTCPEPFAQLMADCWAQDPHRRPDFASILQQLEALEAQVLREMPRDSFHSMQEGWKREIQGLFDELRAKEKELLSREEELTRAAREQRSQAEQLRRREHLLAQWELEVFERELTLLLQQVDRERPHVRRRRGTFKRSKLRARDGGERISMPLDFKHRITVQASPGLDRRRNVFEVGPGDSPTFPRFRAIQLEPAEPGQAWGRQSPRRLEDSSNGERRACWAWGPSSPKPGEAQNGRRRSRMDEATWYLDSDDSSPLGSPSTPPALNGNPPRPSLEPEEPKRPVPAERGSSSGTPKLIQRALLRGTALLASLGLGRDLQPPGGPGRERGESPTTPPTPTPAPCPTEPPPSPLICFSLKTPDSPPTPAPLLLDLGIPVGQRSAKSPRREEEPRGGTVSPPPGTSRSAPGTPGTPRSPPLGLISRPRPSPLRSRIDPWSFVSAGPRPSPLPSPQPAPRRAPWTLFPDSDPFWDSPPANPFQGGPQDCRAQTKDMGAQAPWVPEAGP

[6] = biological target: Ribosomal protein S6 kinase beta-1 (Homo sapiens, UniProt P23443); assay: Selectivity interaction (Kinase panel (KiNativ target engagement assay in Jurkat cells)) EUB0001635a RPS6KB1; format: cell-based; conditions: at 1 µM
Sequence of Ribosomal protein S6 kinase beta-1 (P23443 whole entry, looked up): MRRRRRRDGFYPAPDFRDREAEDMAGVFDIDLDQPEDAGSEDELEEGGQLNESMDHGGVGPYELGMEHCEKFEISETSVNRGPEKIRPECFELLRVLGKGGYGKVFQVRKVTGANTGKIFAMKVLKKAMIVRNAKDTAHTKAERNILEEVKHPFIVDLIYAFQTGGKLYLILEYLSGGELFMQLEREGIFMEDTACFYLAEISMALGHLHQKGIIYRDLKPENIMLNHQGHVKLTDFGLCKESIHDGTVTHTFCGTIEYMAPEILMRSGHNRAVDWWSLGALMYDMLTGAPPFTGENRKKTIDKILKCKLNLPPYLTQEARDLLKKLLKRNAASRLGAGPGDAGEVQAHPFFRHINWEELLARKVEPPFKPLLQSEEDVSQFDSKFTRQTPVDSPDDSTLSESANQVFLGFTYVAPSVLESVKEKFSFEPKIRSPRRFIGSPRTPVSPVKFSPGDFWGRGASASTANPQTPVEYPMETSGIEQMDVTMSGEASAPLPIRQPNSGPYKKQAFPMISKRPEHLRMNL

[7] = biological target: T2, Inhibitor of nuclear factor kappa-B kinase subunit alpha (Homo sapiens) (UniProt O15111); assay: Selectivity interaction (Kinase panel (KiNativ target engagement assay in Jurkat cells)) EUB0001635a CHUK; format: cell-based; conditions: Selectivity number of off-targets 0.0, Selectivity number of targets 233.0, Source Knowledge https://www.sciencedirect.com/science/article/pii/S2451945619300674?via%3Dihub, at 1 µM
T2 sequence (whole entry): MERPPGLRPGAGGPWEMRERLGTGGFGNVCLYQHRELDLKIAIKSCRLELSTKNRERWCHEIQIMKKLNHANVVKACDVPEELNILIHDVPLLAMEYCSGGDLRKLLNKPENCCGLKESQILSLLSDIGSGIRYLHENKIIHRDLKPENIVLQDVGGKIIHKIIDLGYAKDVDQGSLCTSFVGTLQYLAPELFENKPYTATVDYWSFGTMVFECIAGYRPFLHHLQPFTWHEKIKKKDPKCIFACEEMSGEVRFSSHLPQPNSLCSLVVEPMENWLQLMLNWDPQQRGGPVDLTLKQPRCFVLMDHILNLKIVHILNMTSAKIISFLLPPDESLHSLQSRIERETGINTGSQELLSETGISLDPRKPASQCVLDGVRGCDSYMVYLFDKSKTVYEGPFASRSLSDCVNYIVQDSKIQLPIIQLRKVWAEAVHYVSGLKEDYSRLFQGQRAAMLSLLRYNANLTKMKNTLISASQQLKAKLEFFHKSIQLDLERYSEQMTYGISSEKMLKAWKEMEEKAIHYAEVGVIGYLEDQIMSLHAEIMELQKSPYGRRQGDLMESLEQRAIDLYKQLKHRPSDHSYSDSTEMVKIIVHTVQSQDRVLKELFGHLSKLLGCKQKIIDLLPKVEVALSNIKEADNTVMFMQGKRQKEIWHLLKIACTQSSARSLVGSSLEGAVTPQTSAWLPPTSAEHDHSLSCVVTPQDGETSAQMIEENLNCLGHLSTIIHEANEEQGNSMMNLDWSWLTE

[8] = biological target: Glycogen synthase kinase-3 alpha (Homo sapiens, UniProt P49840); assay: Selectivity interaction (ActivX KiNativ screen (kinase selectivity in THP-1 cell lysates)) EUB0000639a GSK3A; format: subcellular; conditions: lysate
Sequence of Glycogen synthase kinase-3 alpha (P49840 2-483 limits assumed): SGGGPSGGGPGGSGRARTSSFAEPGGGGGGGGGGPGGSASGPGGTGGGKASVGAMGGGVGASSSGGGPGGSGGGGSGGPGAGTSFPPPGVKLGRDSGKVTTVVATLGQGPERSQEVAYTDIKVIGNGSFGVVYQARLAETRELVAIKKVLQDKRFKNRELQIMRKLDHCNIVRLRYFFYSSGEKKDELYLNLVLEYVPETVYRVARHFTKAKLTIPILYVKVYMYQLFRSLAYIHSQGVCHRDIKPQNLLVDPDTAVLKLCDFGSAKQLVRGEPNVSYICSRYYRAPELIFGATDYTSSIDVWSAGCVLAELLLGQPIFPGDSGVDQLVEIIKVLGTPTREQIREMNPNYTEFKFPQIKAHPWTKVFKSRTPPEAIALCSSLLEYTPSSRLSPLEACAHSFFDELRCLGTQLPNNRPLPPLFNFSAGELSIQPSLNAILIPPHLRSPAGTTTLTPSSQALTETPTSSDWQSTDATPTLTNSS

[9] = biological target: Inhibitor of nuclear factor kappa-B kinase subunit alpha (Homo sapiens, UniProt O15111); assay: Selectivity interaction (Kinase panel (Enzyme activity assay)) EUB0000612a CHUK
[10] = biological target: Serine/threonine-protein kinase PAK 4 (Homo sapiens, UniProt O96013); assay: Selectivity interaction (ProQinase) EUB0000171b PAK4
Sequence of Serine/threonine-protein kinase PAK 4 (O96013 whole entry, looked up): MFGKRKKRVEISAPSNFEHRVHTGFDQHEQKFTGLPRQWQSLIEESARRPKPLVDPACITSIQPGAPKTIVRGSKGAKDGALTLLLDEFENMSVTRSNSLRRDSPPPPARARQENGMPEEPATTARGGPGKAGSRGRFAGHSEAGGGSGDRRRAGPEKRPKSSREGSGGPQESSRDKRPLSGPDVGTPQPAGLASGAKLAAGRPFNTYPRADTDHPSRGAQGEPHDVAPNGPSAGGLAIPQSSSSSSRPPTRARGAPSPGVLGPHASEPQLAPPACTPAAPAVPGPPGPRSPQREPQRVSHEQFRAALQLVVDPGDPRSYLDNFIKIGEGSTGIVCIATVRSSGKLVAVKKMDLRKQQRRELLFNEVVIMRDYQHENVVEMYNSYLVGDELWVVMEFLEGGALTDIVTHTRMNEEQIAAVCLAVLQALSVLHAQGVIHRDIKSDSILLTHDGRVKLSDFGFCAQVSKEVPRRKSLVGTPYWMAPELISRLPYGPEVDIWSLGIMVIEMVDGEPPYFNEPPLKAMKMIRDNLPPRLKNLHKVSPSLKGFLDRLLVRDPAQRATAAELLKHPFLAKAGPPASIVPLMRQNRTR

[11] = biological target: Serine/threonine-protein kinase tousled-like 2 (Homo sapiens) (UniProt Q86UE8); assay: Selectivity interaction (KinomeScan (DiscoverX)) EUB0000666a TLK2; conditions: at 10 µM
Sequence of Serine/threonine-protein kinase tousled-like 2 (Homo sapiens) (Q86UE8 whole entry, looked up): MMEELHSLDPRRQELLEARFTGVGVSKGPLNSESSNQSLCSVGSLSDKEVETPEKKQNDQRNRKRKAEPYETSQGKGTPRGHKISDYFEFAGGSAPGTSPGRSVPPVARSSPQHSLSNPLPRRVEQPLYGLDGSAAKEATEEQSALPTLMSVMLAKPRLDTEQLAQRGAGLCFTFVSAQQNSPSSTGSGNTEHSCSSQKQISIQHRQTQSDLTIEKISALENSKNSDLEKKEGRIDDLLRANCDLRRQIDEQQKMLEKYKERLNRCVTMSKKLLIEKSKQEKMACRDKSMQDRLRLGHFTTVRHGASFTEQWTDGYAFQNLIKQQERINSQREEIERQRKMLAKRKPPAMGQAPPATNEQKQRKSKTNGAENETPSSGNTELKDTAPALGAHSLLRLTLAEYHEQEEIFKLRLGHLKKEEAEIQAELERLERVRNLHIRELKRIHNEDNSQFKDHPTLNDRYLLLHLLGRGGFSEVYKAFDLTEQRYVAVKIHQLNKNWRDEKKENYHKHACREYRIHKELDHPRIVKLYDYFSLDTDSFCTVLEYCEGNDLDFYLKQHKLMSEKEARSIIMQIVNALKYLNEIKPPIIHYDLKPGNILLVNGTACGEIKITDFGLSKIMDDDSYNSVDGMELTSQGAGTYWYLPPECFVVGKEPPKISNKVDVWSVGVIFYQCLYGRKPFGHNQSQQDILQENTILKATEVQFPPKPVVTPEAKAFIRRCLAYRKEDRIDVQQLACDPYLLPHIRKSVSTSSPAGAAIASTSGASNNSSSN

[12] = biological target: Wee1-like protein kinase 2 (Homo sapiens) (UniProt P0C1S8); assay: Selectivity interaction (KinomeScan (DiscoverX)) EUB0000666a WEE2; conditions: at 10 µM
Sequence of Wee1-like protein kinase 2 (Homo sapiens) (P0C1S8 whole entry, looked up): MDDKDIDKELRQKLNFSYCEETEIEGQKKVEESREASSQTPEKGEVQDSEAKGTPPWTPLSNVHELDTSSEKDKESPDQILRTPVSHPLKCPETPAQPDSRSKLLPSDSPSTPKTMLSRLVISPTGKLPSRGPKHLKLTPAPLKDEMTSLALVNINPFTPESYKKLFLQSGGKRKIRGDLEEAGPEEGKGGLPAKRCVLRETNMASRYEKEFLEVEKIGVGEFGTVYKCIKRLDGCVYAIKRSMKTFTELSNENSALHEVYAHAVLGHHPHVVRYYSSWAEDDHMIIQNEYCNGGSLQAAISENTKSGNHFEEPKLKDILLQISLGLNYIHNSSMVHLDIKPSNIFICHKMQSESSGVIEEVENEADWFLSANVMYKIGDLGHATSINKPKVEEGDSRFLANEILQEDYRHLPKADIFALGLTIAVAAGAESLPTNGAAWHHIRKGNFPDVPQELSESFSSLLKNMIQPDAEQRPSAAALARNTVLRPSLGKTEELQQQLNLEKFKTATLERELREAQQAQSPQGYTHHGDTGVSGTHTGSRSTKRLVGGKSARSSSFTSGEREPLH

[13] = biological target: T3, Eukaryotic elongation factor 2 kinase (Homo sapiens) (UniProt O00418); assay: Selectivity interaction (Kinase panel (Z-LYTE Assay)) EUB0001632a EEF2K; conditions: at 10 µM
T3 sequence (whole entry): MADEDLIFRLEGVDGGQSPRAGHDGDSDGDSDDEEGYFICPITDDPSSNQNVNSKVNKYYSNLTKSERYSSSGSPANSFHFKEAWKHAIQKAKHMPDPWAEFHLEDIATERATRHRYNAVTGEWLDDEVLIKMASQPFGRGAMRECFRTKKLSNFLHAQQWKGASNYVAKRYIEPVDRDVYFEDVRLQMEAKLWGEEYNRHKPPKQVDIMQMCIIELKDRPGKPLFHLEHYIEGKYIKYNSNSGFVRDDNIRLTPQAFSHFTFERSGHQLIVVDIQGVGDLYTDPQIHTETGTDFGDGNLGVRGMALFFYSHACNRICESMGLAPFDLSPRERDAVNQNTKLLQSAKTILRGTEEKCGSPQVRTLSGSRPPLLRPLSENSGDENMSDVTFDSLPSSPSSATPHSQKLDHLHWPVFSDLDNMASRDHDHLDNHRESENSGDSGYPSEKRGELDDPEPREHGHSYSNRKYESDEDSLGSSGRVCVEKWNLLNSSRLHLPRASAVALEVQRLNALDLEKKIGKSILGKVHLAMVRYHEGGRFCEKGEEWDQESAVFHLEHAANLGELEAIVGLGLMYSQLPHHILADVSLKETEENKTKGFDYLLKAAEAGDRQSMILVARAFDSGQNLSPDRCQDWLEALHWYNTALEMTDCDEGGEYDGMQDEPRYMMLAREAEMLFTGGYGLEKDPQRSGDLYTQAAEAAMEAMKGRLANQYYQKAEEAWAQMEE

% of control [1]: 100%
SMILES: CCN(CC)CCCCNc1ncc2cc(-c3cc(OC)cc(OC)c3)c(NC(=O)NC(C)(C)C)nc2n1

SMILES: CN(C)CCOc1ccc(-c2nc(-c3ccncc3)c(-c3ccc4c(c3)CC/C4=N\O)[nH]2)cc1
% of control [2]: 94%

SMILES: Nc1cnc(N2CCc3cc(S(=O)(=O)Nc4c(F)cc(Cl)cc4F)cc(N4CCCC4=O)c32)nc1 [TP-020n]
% of control [3]: 100%
% of inhibition [4]: 20.2%

SMILES: N#Cc1cccc(-c2c[nH]c3ncnc(N4CCOCC4)c23)c1
% of inhibition [5]: 20%

SMILES: C=CC(=O)Nc1ccc(C(=O)Nc2[nH]nc3c2CN(C(=O)N[C@H](CN(C)C)c2ccccc2)C3(C)C)cc1
% of engagement ([6]; Selectivity number of off-targets 0.0, Selectivity number of targets 233.0, Source Knowledge https://www.sciencedirect.com/science/article/pii/S2451945619300674?via%3Dihub): 7.5%
% of engagement [6]: -9.4%
% of engagement [7]: -7.3%

% of inhibition ([8]; at 0.01 µM): -6%
% of inhibition ([8]; at 0.04 µM): -6.7%
% of inhibition ([8]; at 0.2 µM): -1.9%
% of inhibition ([8]; at 1 µM): 8.1%
% of inhibition ([8]; at 5 µM): 18.5%
SMILES: CC[C@@H]1[C@H](F)C(=O)N[C@@H]1COc1nccc2cc(C(N)=O)c(OC)cc12 [ZIMLOVISERTIB]

IC50 [9]: > 10 µM
SMILES: CCc1cccc(CC)c1NC(=O)c1nn(C)c2c1CCc1cnc(Nc3ccc(C(=O)NC4CCN(C)CC4)cc3OC(F)(F)F)nc1-2

% of control ([10]; at 1 µM): 92%
% of control ([10]; at 5 µM): 76%
SMILES: C=CC(=O)Nc1cccc(C(=O)Nc2ccc(Nc3cc(-c4[nH]c(SC)nc4C)ccn3)cc2)c1

SMILES: O=C(NOC[C@H](O)CO)c1ccc(F)c(F)c1Nc1ccc(I)cc1F
% of control [11]: 98%
% of control [12]: 77%

% of control [13]: 1.73%
SMILES: Cn1cc(-n2cnc3c(NCc4nc5cc(Cl)c(Cl)cc5[nH]4)nc(N4CCOCC4)nc32)cn1
